Experimental data published in patent publication US20230372382A1, “USE OF ADENOSINE DIPHOSPHATE RIBOSE FOR ADJUVANT THERAPY WITH RADIATION AND/OR ANTI-CANCER TREATMENT” (PearlsInMires Co., Ltd., priority 2021, published 2023).

Columns and labels:
[1] = tested on: Colon cancer (HCT116) cells; assay: Cell death by combination treatment with anti-cancer drug (MTT); assay type: cell-based; conditions: Homo sapiens, HCT-116; HCT116, 5-FU 10 μM alone, 24 hours; read-out: cancer cells survived (cell viability)
[2] = tested on: Pancreatic cancer (AsPC-1) cells; assay: as above; assay type: cell-based; conditions: Homo sapiens, ASPC1, 24 h; read-out: cancer cells survived (cell viability)
[3] = tested on: Lung cancer (H1975) cells; assay: Xenograft model, combination with anti-cancer drug, tumor volume; assay type: in vivo, BALB/c nude mice; conditions: osimertinib 1 mg/kg oral twice a week alone
Method: (§1) Brain (U-87MG), lung (H1975), pancreatic (AsPC-1), or liver (Hep G2) cells (1×10^7 cells) were inoculated into 5-week-old BALB/c nude mice on the back flank, respectively. Then, when tumors were grown to a volume of approximately 150 mm^3, the mice were divided into the control group (control), an anti-cancer drug alone treatment group, and a combination treatment group. […] The tumor size was measured every 6 days using a digital caliper, and the results of changes in tumor volume were compared by the group.
Lung cancer (H1975) cells (1×10^7) were inoculated into 5-week-old BALB/c nude mice on the back flank, and the mice were divided into three groups: the control group (Control), single oral administration of 1 mg/kg of osimertinib, and combination administration of osimertinib+10 mg/kg of ADP-ribose. When the tumors were grown to a volume of approximately 150 mm^3, osimertinib was administered orally twice a week, and ADP-ribose at 10 mg/kg was injected subcutaneously 3 times a week. The tumor size was measured using a digital caliper, and the results of changes in tumor volume were compared by the group.

[4] = tested on: Lung cancer (H1975) cells; assay: Cell death by combination treatment with anti-cancer drug (MTT); assay type: cell-based; conditions: Homo sapiens, NCI-H1975; H1975, osimertinib 1 nM alone, 24 hours; read-out: cancer cells survived (cell viability)
[5] = tested on: Liver cancer (Hep G2) cells; assay: Xenograft model, combination with anti-cancer drug, tumor volume; assay type: in vivo, BALB/c nude mice; conditions: sorafenib 10 mg/kg oral 5 times a week alone
Method: as §1
Liver cancer (Hep G2) cells (1×10^7) were inoculated into 5-week-old BALB/c nude mice on the back flank, and the mice were divided into three groups: the control group (Control), single oral administration of 10 mg/kg of sorafenib, and combination administration of sorafenib+10 mg/kg of ADP-ribose. When the tumors were grown to a volume of approximately 150 mm^3, sorafenib was administered orally 5 times a week, and ADP-ribose at 10 mg/kg was injected subcutaneously 3 times a week. The tumor size was measured using a digital caliper, and the results of changes in tumor volume were compared by the group.

[6] = tested on: Liver cancer (Hep G2) cells; assay: Cell death by combination treatment with anti-cancer drug (MTT); conditions: Homo sapiens, HepG2, 24 h, read-out: cancer cells survived (cell viability)
[7] = tested on: Brain cancer (U-87MG) cells; assay: Xenograft model, combination with anti-cancer drug, tumor volume; assay type: in vivo, BALB/c nude mice; conditions: U-87MG xenograft, Avastin 25 mg/kg intraperitoneal twice a week alone
Method: as §1
Brain cancer (U-87MG) cells (1×10^7) were inoculated into 5-week-old BALB/c nude mice on the back flank, and the mice were divided into three groups: the control group (Control), single intraperitoneal administration of 25 mg/kg of Avastin (ingredient name: bevacizumab), and combination administration of Avastin+10 mg/kg of ADP-ribose. When the tumors were grown to a volume of approximately 150 mm^3, Avastin was administered intraperitoneally twice a week, and ADP-ribose at 10 mg/kg was injected subcutaneously 3 times a week. The tumor size was measured using a digital caliper, and the results of changes in tumor volume were compared by the group.

**Q.** Which viability at 10 µM [1] does the source give for `O=c1[nH]cc(F)c(=O)[nH]1` [5-FU, 5-fluorouracil, reference compound] here?
**A.** Its viability at 10 µM is about 51%.

**Q.** `Nc1ccn([C@@H]2O[C@H](CO)[C@@H](O)C2(F)F)c(=O)n1` [gemcitabine, reference compound] was tested. Which viability at 1 µM [2] did it give?
**A.** The viability at 1 µM was about 54%.

**Q.** `C=CC(=O)Nc1cc(Nc2nccc(-c3cn(C)c4ccccc34)n2)c(OC)cc1N(C)CCN(C)C` [osimertinib, reference compound] was tested. Which “final tumor volume lower than that of the control group” value (“final tumor volume lower than that” below) [3] did it give?
**A.** Its value is “about 17%”.

**Q.** What about the final tumor volume ([3]; control about 2265.5) of the same compound?
**A.** The final tumor volume was “about 1881.9 mm^3”.

**Q.** What about the viability at 0.001 µM [4] of the same compound?
**A.** The viability at 0.001 µM was about 50%.

**Q.** For `CNC(=O)c1cc(Oc2ccc(NC(=O)Nc3ccc(Cl)c(C(F)(F)F)c3)cc2)ccn1` [sorafenib, reference compound], which “final tumor volume lower than that” value [5] is on record?
**A.** Its value is “about 20%”.

**Q.** What about the final tumor volume ([5]; control about 2322.4) of the same compound?
**A.** The final tumor volume was “about 1849.8 mm^3”.

**Q.** What about the viability at 1 µM [6] of the same compound?
**A.** Its viability at 1 µM is about 49%.

**Q.** “bevacizumab: anti-VEGF monoclonal antibody; Avastin (ingredient name: bevacizumab) [reference compound]” was tested. Which “final tumor volume lower than that” value [7] did it give?
**A.** The value was “about 37%”.

**Q.** What about the final tumor volume ([7]; control about 2527.1) of the same compound?
**A.** The final tumor volume was “about 1598.9 mm^3”.
